Source: patent publication US7332317B2, “Phosphodiesterase and genes thereof” (Tanabe Seiyaku Co., Ltd., priority 1999, dated 2008)
Several values for one entry are separate records, joined by “and”; a condition that tells them apart may be missing. Identical values can stand only once. Like-named read-outs stand apart in the source and are kept apart here.

Assays:
[1] = target: T1, human PDE11A2 (Homo sapiens, UniProt Q9HCR9, DUP921-921); assay: Inhibition of human PDE11A2 activity by known PDE inhibitors (radio-labeled nucleotide method)
T1 sequence (Q9HCR9 with tags, fused parts or gaps isoform Q9HCR9-2 DUP671-671): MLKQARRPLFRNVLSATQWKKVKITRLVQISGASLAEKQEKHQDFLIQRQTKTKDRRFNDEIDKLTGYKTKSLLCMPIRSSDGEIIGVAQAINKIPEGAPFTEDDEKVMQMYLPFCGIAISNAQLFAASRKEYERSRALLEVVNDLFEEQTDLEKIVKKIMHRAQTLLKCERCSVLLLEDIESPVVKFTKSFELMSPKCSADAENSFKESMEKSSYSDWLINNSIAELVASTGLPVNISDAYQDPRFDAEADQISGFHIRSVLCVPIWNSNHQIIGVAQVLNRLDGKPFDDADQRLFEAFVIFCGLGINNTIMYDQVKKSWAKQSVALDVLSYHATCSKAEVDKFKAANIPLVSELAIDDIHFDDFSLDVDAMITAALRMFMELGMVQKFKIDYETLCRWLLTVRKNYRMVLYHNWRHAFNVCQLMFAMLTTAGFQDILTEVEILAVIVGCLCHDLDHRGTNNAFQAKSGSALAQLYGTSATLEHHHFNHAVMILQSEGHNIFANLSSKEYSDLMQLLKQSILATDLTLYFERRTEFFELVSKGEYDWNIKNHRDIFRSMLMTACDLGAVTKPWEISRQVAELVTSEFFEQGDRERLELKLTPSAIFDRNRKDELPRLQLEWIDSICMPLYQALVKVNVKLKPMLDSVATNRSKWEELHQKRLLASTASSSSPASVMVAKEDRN
Procedure: (§1) Incidentally, measurement of PDE activity was done according to a radio-labeled nucleotide method. […] After carrying out a reaction by keeping a temperature at 37° C. for 30 minutes, reaction was terminated by boiling the reaction mixture for 2 minutes, and 100 μl of 1 mg/ml of snake venom (Crotalus atrox snake venom) was further added thereto and the temperature was kept at 37° C. for 30 minutes. Subsequently, 500 μl of methanol was added thereto, and the reaction mixture was applied to Dowex column (1×8-400). Scintillation cocktail was added to each of the eluates, and radioactivity was measured.

[2] = target: T2, human PDE11A1 (Homo sapiens, UniProt Q9HCR9, DUP921-921/R184Q); assay: Inhibition of human PDE11A1 activity by known PDE inhibitors (radio-labeled nucleotide method)
T2 sequence (Q9HCR9 with tags, fused parts or gaps R184Q/DUP921-921): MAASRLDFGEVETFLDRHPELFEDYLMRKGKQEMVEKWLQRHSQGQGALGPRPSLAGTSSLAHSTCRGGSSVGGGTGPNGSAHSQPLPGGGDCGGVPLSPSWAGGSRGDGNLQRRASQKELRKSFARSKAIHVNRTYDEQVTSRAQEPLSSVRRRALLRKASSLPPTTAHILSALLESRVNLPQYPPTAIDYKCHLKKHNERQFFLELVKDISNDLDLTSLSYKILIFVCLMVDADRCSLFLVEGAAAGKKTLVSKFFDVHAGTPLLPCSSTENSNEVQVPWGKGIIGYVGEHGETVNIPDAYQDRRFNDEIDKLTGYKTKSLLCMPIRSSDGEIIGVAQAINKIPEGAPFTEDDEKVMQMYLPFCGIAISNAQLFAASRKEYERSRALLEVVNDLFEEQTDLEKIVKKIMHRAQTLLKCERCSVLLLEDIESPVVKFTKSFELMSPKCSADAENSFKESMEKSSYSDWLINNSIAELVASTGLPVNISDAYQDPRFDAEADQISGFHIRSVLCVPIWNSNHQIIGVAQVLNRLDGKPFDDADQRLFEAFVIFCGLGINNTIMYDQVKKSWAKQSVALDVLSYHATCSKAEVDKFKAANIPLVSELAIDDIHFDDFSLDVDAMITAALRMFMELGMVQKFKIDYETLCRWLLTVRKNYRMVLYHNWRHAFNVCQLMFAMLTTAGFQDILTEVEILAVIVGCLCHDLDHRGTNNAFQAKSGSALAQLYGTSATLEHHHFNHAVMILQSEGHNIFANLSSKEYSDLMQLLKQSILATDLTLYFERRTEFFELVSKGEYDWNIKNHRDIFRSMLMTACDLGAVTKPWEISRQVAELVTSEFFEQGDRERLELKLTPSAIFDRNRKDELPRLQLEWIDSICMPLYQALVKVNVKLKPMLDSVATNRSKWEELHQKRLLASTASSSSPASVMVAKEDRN
Procedure: as §1

[3] = target: T1, human PDE11A2; assay: Kinetic analysis of cAMP/cGMP hydrolysis by human PDE11A2 (Lineweaver-Burk plot); format: biochemical; design: inserted into a BamHI-XhoI site of an expression vector, pHis, to obtain a vector plasmid pHis-PDE11T for PDE11A2 expression; made in house; host or cells: COS-7 cells; conditions: labelled substance as substrate, 0.1 to 10 μM
[4] = target: T2, human PDE11A1; assay: Kinetic analysis of cAMP/cGMP hydrolysis by human PDE11A1 (Lineweaver-Burk plot); format: biochemical; design: inserted into a BamHI-XhoI site of an expression vector, pcDNA4/HisMaxC; made in house; host or cells: COS-7 cells; conditions: labelled substance as substrate, 0.1 to 10 μM
[5] = system: human PDE11; assay: Influence of cGMP on cAMP hydrolysis activity and of cAMP on cGMP hydrolysis activity; format: biochemical; conditions: 3.5 μM unlabeled cAMP; 0.01-100 μM cGMP added; PDE11A1 and PDE11A2, FIG. 3
[6] = read-out: IC50 value for human PDE11A2 activity, effect on cGMP hydrolysis activity, substrate 1.3 μM unlabeled cGMP, inhibitor 0-100 μM, recombinant enzyme from COS-7 cells
[7] = read-out: IC50 value for human PDE11A1 activity, effect on cGMP hydrolysis activity, substrate 1.3 μM unlabeled cGMP, inhibitor 0-100 μM, recombinant enzyme from COS-7 cells

CC(C)Cn1c(=O)n(C)c(=O)c2[nH]cnc21 [IBMX, 3-isobutyl-1-methylxanthine]
IC50 [1]: 30 µM and 38 µM | IC50 [2]: 65 µM and 81 µM

O=C(O)C1CCN(c2nc(NCc3ccc4c(c3)OCO4)c3cc(Cl)ccc3n2)CC1 [E4021, sodium 1-[6-chloro-4-(3,4-methylenedioxybenzyl)aminoquinazolin-2-yl]pyperidine-4-carboxylate]
IC50 [1]: 0.88 µM and 0.66 µM | IC50 [2]: 1.8 ± 0.33 µM

CN1C(=O)c2[nH]c(Cc3ccc(C(F)(F)F)cc3)nc2N2C1=N[C@@H]1CCC[C@@H]12 (single isomer, unassigned) [SCH51866, (+)-cis-5-methyl-2-[4-(trifluoromethyl)benzyl]-3,4,5,6a,7,8,9,9a-octahydrocyclopent[4,5]imidazo-[2,1-b]purin-4-one]
IC50 [1]: 11 µM and 8.6 µM | IC50 [2]: 22 µM and 25 µM

COc1ccc(C2CNC(=O)C2)cc1OC1CCCC1 (centres unmarked) [Rolipram]
IC50 [1]: > 100 µM | IC50 [1, 6]: > 100 µM | IC50 [2]: > 100 µM | IC50 [2, 7]: > 100 µM

Nc1ncnc2c1ncn2[C@@H]1O[C@@H]2COP(=O)(O)O[C@H]2[C@H]1O [cAMP]
Vmax of human PDE11A2 [3]: 9.63±1.88 pmol/min/μg protein

CCOC(=O)C1=C[C@]2(CC)CCCN3CCc4c(n1c1ccccc41)[C@@H]32 [Vinpocetine]
IC50 [1]: 49 µM and 68 µM | IC50 [2]: > 100 µM | IC50 [2, 7]: > 100 µM

Cc1[nH]c(=O)c(C#N)cc1-c1ccncc1 [Milrinone]
IC50 [1]: > 100 µM | IC50 [1, 6]: > 100 µM | IC50 [2]: > 100 µM | IC50 [2, 7]: > 100 µM

Nc1nc2c(ncn2[C@@H]2O[C@@H]3COP(=O)(O)O[C@H]3[C@H]2O)c(=O)[nH]1 [cGMP]
Km [4]: 1.43 ± 0.109 µM | Vmax of human PDE11A1 [4]: 121±8.08 pmol/min/μg of protein | cAMP hydrolysis activity (relative value %) on addition of cGMP [5]: lowered depending on a concentration of cGMP added | Km [3]: 1.47 ± 0.115 µM | Vmax of human PDE11A2 [3]: 4.02±0.214 pmol/min/μg protein
